US20230157952A1, “METHOD FOR IMPROVING THE STABILITY OF A PHARMACEUTICAL COMPOSITION COMPRISING A HIGH PENETRATION DRUG, AND THE PHARMACEUTICAL COMPOSITION OBTAINED THEREFROM” (Techfields Inc., priority 2020, published 2023)

Experiment: Effect of temperature (and pH) on the stability of the solution (purity)
Assay type: physicochemical
Settings: 7% solution in water

## CCN(CC)CCOC(=O)Cc1ccc(C(=O)c2ccc(C)cc2)n1C.Cl
pH 1.0, day 0
  Purity(%) at day 0: 97.4 ± 0.4%
pH 1.0, day 21, 5° C.
  Purity(%) at day 21 (5° C.): 90.3 ± 0.3%
pH 1.0, day 21, 25° C.
  Purity(%) at day 21 (25° C.): 65.5 ± 0.3%
pH 1.0, day 21, 40° C.
  Purity(%) at day 21 (40° C.): 9.4 ± 0.3%
pH 1.0, day 21, 60° C.
  Purity (%) at day 21 (60° C.): 0%
pH 2.0, day 0
  Purity(%) at day 0: 97.6 ± 0.3%
pH 2.0, day 21, 5° C.
  Purity(%) at day 21 (5° C.): 93.5 ± 0.3%
pH 2.0, day 21, 25° C.
  Purity(%) at day 21 (25° C.): 78.1 ± 0.3%
pH 2.0, day 21, 40° C.
  Purity(%) at day 21 (40° C.): 20.6 ± 0.3%
pH 2.0, day 21, 60° C.
  Purity (%) at day 21 (60° C.): 0%
pH 3.0, day 0
  Purity(%) at day 0: 97.8 ± 0.2%
pH 3.0, day 21, 5° C.
  Purity(%) at day 21 (5° C.): 95.3 ± 0.3%
pH 3.0, day 21, 25° C.
  Purity(%) at day 21 (25° C.): 91.2 ± 0.2%
pH 3.0, day 21, 40° C.
  Purity(%) at day 21 (40° C.): 41.7 ± 0.2%
pH 3.0, day 21, 60° C.
  Purity (%) at day 21 (60° C.): 0%
pH 3.7, day 0
  Purity(%) at day 0: 97.9 ± 0.2%
pH 3.7, day 21, 5° C.
  Purity(%) at day 21 (5° C.): 96.4 ± 0.2%
pH 3.7, day 21, 25° C.
  Purity(%) at day 21 (25° C.): 95.6 ± 0.2%
pH 3.7, day 21, 40° C.
  Purity(%) at day 21 (40° C.): 56.6 ± 0.2%
pH 3.7, day 21, 60° C.
  Purity (%) at day 21 (60° C.): 11.5 ± 0.3%
pH 4.0, day 0
  Purity(%) at day 0: 98.1 ± 0.1%
pH 4.0, day 21, 5° C.
  Purity(%) at day 21 (5° C.): 96.8 ± 0.1%
pH 4.0, day 21, 25° C.
  Purity(%) at day 21 (25° C.): 95.7 ± 0.2%
pH 4.0, day 21, 40° C.
  Purity(%) at day 21 (40° C.): 58.3 ± 0.2%
pH 4.0, day 21, 60° C.
  Purity (%) at day 21 (60° C.): 23.0 ± 0.3%
pH 4.3, day 0
  Purity(%) at day 0: 98.1 ± 0.2%
pH 4.3, day 21, 5° C.
  Purity(%) at day 21 (5° C.): 96.9 ± 0.1%
pH 4.3, day 21, 25° C.
  Purity(%) at day 21 (25° C.): 95.4 ± 0.1%
pH 4.3, day 21, 40° C.
  Purity(%) at day 21 (40° C.): 60.1 ± 0.1%
pH 4.3, day 21, 60° C.
  Purity (%) at day 21 (60° C.): 25.8 ± 0.2%
pH 4.6, day 0
  Purity(%) at day 0: 97.9 ± 0.1%
pH 4.6, day 21, 5° C.
  Purity(%) at day 21 (5° C.): 96.3 ± 0.2%
pH 4.6, day 21, 25° C.
  Purity(%) at day 21 (25° C.): 94.9 ± 0.2%
pH 4.6, day 21, 40° C.
  Purity(%) at day 21 (40° C.): 55.3 ± 0.2%
pH 4.6, day 21, 60° C.
  Purity (%) at day 21 (60° C.): 13.5 ± 0.3%
pH 5.0, day 0
  Purity(%) at day 0: 97.8 ± 0.2%
pH 5.0, day 21, 5° C.
  Purity(%) at day 21 (5° C.): 96.1 ± 0.2%
pH 5.0, day 21, 25° C.
  Purity(%) at day 21 (25° C.): 92.1 ± 0.3%
pH 5.0, day 21, 40° C.
  Purity(%) at day 21 (40° C.): 37.8 ± 0.3%
pH 5.0, day 21, 60° C.
  Purity (%) at day 21 (60° C.): 1.7 ± 0.3%
pH 6.0, day 0
  Purity(%) at day 0: 97.6 ± 0.3%
pH 6.0, day 21, 5° C.
  Purity(%) at day 21 (5° C.): 94.4 ± 0.2%
pH 6.0, day 21, 25° C.
  Purity(%) at day 21 (25° C.): 79.5 ± 0.3%
pH 6.0, day 21, 40° C.
  Purity(%) at day 21 (40° C.): 19.5 ± 0.2%
pH 6.0, day 21, 60° C.
  Purity (%) at day 21 (60° C.): 0%
pH 7.0, day 0
  Purity(%) at day 0: 97.4 ± 0.3%
pH 7.0, day 21, 5° C.
  Purity(%) at day 21 (5° C.): 90.0 ± 0.3%
pH 7.0, day 21, 25° C.
  Purity(%) at day 21 (25° C.): 59.7 ± 0.3%
pH 7.0, day 21, 40° C.
  Purity(%) at day 21 (40° C.): 5.7 ± 0.3%
pH 7.0, day 21, 60° C.
  Purity (%) at day 21 (60° C.): 0%
pH 8.0, day 0
  Purity(%) at day 0: 97.1 ± 0.3%
pH 8.0, day 21, 5° C.
  Purity(%) at day 21 (5° C.): 78.1 ± 0.3%
pH 8.0, day 21, 25° C.
  Purity(%) at day 21 (25° C.): 43.6 ± 0.4%
pH 8.0, day 21, 40° C.
  Purity(%) at day 21 (40° C.): 0%
pH 8.0, day 21, 60° C.
  Purity (%) at day 21 (60° C.): 0%

## CCN(CC)CCOC(=O)CC1=C(C)C(=Cc2ccc([S+](C)[O-])cc2)c2ccc(F)cc21.Cl (centres unmarked)
pH 1.0, day 0
  Purity(%) at day 0: 97.2 ± 0.3%
pH 1.0, day 21, 5° C.
  Purity(%) at day 21 (5° C.): 91.1 ± 0.4%
pH 1.0, day 21, 25° C.
  Purity(%) at day 21 (25° C.): 67.5 ± 0.4%
pH 1.0, day 21, 40° C.
  Purity(%) at day 21 (40° C.): 10.4 ± 0.4%
pH 1.0, day 21, 60° C.
  Purity (%) at day 21 (60° C.): 0%
pH 2.0, day 0
  Purity(%) at day 0: 97.3 ± 0.3%
pH 2.0, day 21, 5° C.
  Purity(%) at day 21 (5° C.): 94.7 ± 0.3%
pH 2.0, day 21, 25° C.
  Purity(%) at day 21 (25° C.): 81.1 ± 0.3%
pH 2.0, day 21, 40° C.
  Purity(%) at day 21 (40° C.): 23.6 ± 0.3%
pH 2.0, day 21, 60° C.
  Purity (%) at day 21 (60° C.): 0%
pH 3.0, day 0
  Purity(%) at day 0: 97.6 ± 0.2%
pH 3.0, day 21, 5° C.
  Purity(%) at day 21 (5° C.): 96.3 ± 0.2%
pH 3.0, day 21, 25° C.
  Purity(%) at day 21 (25° C.): 92.2 ± 0.2%
pH 3.0, day 21, 40° C.
  Purity(%) at day 21 (40° C.): 45.7 ± 0.3%
pH 3.0, day 21, 60° C.
  Purity (%) at day 21 (60° C.): 0%
pH 3.7, day 0
  Purity(%) at day 0: 97.6 ± 0.2%
pH 3.7, day 21, 5° C.
  Purity(%) at day 21 (5° C.): 97.3 ± 0.2%
pH 3.7, day 21, 25° C.
  Purity(%) at day 21 (25° C.): 96.8 ± 0.2%
pH 3.7, day 21, 40° C.
  Purity(%) at day 21 (40° C.): 55.5 ± 0.2%
pH 3.7, day 21, 60° C.
  Purity (%) at day 21 (60° C.): 13.5 ± 0.3%
pH 4.0, day 0
  Purity(%) at day 0: 97.9 ± 0.1%
pH 4.0, day 21, 5° C.
  Purity(%) at day 21 (5° C.): 97.4 ± 0.1%
pH 4.0, day 21, 25° C.
  Purity(%) at day 21 (25° C.): 96.9 ± 0.1%
pH 4.0, day 21, 40° C.
  Purity(%) at day 21 (40° C.): 60.3 ± 0.2%
pH 4.0, day 21, 60° C.
  Purity (%) at day 21 (60° C.): 19.7 ± 0.3%
pH 4.3, day 0
  Purity(%) at day 0: 97.7 ± 0.2%
pH 4.3, day 21, 5° C.
  Purity(%) at day 21 (5° C.): 97.3 ± 0.1%
pH 4.3, day 21, 25° C.
  Purity(%) at day 21 (25° C.): 96.7 ± 0.1%
pH 4.3, day 21, 40° C.
  Purity(%) at day 21 (40° C.): 63.1 ± 0.1%
pH 4.3, day 21, 60° C.
  Purity (%) at day 21 (60° C.): 16.8 ± 0.2%
pH 4.6, day 0
  Purity(%) at day 0: 97.8 ± 0.1%
pH 4.6, day 21, 5° C.
  Purity(%) at day 21 (5° C.): 97.3 ± 0.2%
pH 4.6, day 21, 25° C.
  Purity(%) at day 21 (25° C.): 95.9 ± 0.2%
pH 4.6, day 21, 40° C.
  Purity(%) at day 21 (40° C.): 57.3 ± 0.2%
pH 4.6, day 21, 60° C.
  Purity (%) at day 21 (60° C.): 15.5 ± 0.3%
pH 5.0, day 0
  Purity(%) at day 0: 97.7 ± 0.3%
pH 5.0, day 21, 5° C.
  Purity(%) at day 21 (5° C.): 96.1 ± 0.2%
pH 5.0, day 21, 25° C.
  Purity(%) at day 21 (25° C.): 93.9 ± 0.3%
pH 5.0, day 21, 40° C.
  Purity(%) at day 21 (40° C.): 38.9 ± 0.3%
pH 5.0, day 21, 60° C.
  Purity (%) at day 21 (60° C.): 1.5 ± 0.3%
pH 6.0, day 0
  Purity(%) at day 0: 97.5 ± 0.3%
pH 6.0, day 21, 5° C.
  Purity(%) at day 21 (5° C.): 94.4 ± 0.3%
pH 6.0, day 21, 25° C.
  Purity(%) at day 21 (25° C.): 88.9 ± 0.2%
pH 6.0, day 21, 40° C.
  Purity(%) at day 21 (40° C.): 21.6 ± 0.2%
pH 6.0, day 21, 60° C.
  Purity (%) at day 21 (60° C.): 0%
pH 7.0, day 0
  Purity(%) at day 0: 97.3 ± 0.3%
pH 7.0, day 21, 5° C.
  Purity(%) at day 21 (5° C.): 89.0 ± 0.3%
pH 7.0, day 21, 25° C.
  Purity(%) at day 21 (25° C.): 59.8 ± 0.3%
pH 7.0, day 21, 40° C.
  Purity(%) at day 21 (40° C.): 5.4 ± 0.3%
pH 7.0, day 21, 60° C.
  Purity (%) at day 21 (60° C.): 0%
pH 8.0, day 0
  Purity(%) at day 0: 96.9 ± 0.4%
pH 8.0, day 21, 5° C.
  Purity(%) at day 21 (5° C.): 77.1 ± 0.3%
pH 8.0, day 21, 25° C.
  Purity(%) at day 21 (25° C.): 44.5 ± 0.4%
pH 8.0, day 21, 40° C.
  Purity(%) at day 21 (40° C.): 0%
pH 8.0, day 21, 60° C.
  Purity (%) at day 21 (60° C.): 0%
